Read-outs that look alike come from different tables or passages of the source.
Tests used:
[1] = system: lung cancer cell lines (e.g. NCI-H23, NCI-H1229); test: Cell based assay, cell viability (CellTiter-Glo), lung cancer cell lines; details: Homo sapiens, 72 hours treatment, CellTiter-Glo
Protocol: (§1) Commercially available bladder cancer, prostate cancer, lung cancer, breast cancer, blood cancer, pancreatic cancer, colorectal cancer, brain cancer, neuroblastoma, melanoma, liver cancer, cervical carcinoma, ovarian cancer, renal cancer, and papilloma cell lines were each treated with trypsin-EDTA and cultured, followed by being seeded in each well of a 96 well plate. After 24 hours of treatment at constant temperature, the respective cells were treated with the candidate compound so that a final concentration became 0 to 2 μM. The treated cells were additionally cultured for 72 hours, and cell viability was measured by using an ATP detection method (CellTiter-Glo® Luminescent Cell Viability Assay, Promega).

[2] = system: brain cancer cell lines; test: Cell based assay, cell viability (CellTiter-Glo), brain cancer cell lines; details: Homo sapiens
Protocol: as §1, with “After 24 hours of treatment at constant temperature, the respective cells were treated with the candidate compound so that a final concentration became 0 to 2 μM.” left out

[3] = system: renal cancer cell lines; test: Cell based assay, cell viability (CellTiter-Glo), renal cancer cell lines; details: Homo sapiens; ACHN cells
Protocol: as §1

[4] = A549 cells, read-out: IC50, lung cancer cell line A549
[5] = DMS 114 cells, read-out: IC50, lung cancer cell line DMS 114
[6] = NCI-H23 cells, read-out: IC50, lung cancer cell line NCI-H23
[7] = NCI-H460 cells, read-out: IC50, lung cancer cell line NCI-H460
[8] = NCI-H522 cells, read-out: IC50, lung cancer cell line NCI-H522
[9] = NCI-H1299 cells, read-out: IC50, lung cancer cell line NCI-H1299
[10] = NCI-H1437 cells, read-out: IC50, lung cancer cell line NCI-H1437
[11] = U138-MG, U-138 MG cell line, read-out: IC50, Brain cancer cell line U-138 MG
[12] = T98G cell line, read-out: IC50, Brain cancer cell line T98G
[13] = U-251 MG cell line, read-out: IC50, Brain cancer cell line U-251 MG

SMILES	IC50 [1, 4] [nM]	IC50 [1, 5] [nM]	IC50 ([1]; MRC-5 cells, read-out: IC50) [nM]	IC50 [1, 6] [nM]	IC50 [1, 7] [nM]	IC50 [1, 8] [nM]	IC50 [1, 9] [nM]	IC50 [1, 10] [nM]	IC50 [2, 11] [nM]	IC50 [2, 12] [nM]	IC50 [2, 13] [nM]	IC50 [3] [nM]
CC(=O)c1c([S+]([O-])Cc2ccc(C(=O)c3ccccc3)cc2)[nH]c2c(Br)ccc(Cl)c2c1=O (stereo not drawn) [Compound 63, 3-acetyl-2-((4-benzoylbenzyl)sulfinyl)-8-bromo-5-chloroquinolin-4(1H)-one]	> 2000	> 2000	> 2000	1700	> 2000	> 2000	> 2000	> 10000	> 2000	> 10000	> 2000	> 2000
CC(=O)c1c(Sc2ccccc2)[nH]c2c(Br)ccc(Cl)c2c1=O [Compound 12, 3-acetyl-8-bromo-5-chloro-2-(phenylthio)quinolin-4(1H)-one]	> 2000	> 2000	> 2000	> 2000	> 2000	> 2000	> 2000	> 10000	> 10000	> 10000	> 2000	> 2000
Cc1cc(C[S+]([O-])c2[nH]c3c(Cl)ccc(Cl)c3c(=O)c2C(=O)c2ccccc2)no1 (stereo not drawn) [Compound 88, 3-benzoyl-5,8-dichloro-2-(((5-methylisoxazol-3-yl)methyl)sulfinyl)quinolin-4(1H)-one]	> 2000	> 2000	> 2000	> 2000	> 2000	> 2000	> 2000	> 10000	> 10000	> 10000	> 2000	> 2000
CC(=O)c1c([S+]([O-])CC#N)[nH]c2c(Br)ccc(Cl)c2c1=O (stereo not drawn) [Compound 65, 2-((3-acetyl-8-bromo-5-chloro-4-oxo-1,4-dihydroquinolin-2-yl)sulfinyl)acetonitrile]	> 2000	> 2000	> 2000	> 2000	> 2000	> 2000	> 2000	> 10000	> 10000	> 10000	> 2000	> 2000
CC(=O)c1c([S+]([O-])C(C)c2ccccc2)[nH]c2c(Br)ccc(Cl)c2c1=O (stereo not drawn) [Compound 26, 3-acetyl-8-bromo-5-chloro-2-((1-phenylethyl)sulfinyl)quinolin-4(1H)-one]	> 2000	> 2000	> 2000	> 2000	> 2000	> 2000	> 2000	> 10000	> 2000	> 2000	> 2000	> 2000
CC(=O)c1c([S+](C)[O-])n(S(=O)(=O)c2ccc(C(C)(C)C)cc2)c2c(Br)ccc(Cl)c2c1=O (stereo not drawn) [Compound 42, 3-acetyl-8-bromo-1-((4-(tert-butyl)phenyl)sulfonyl)-5-chloro-2-(methylsulfinyl)quinolin-4(1H)-one]	> 2000	> 2000	> 2000	1840	> 2000	> 2000	> 2000	> 10000	> 2000	> 10000	> 2000	> 2000
CC(=O)c1c(S(=O)(=O)Cc2ccccc2)nc2c(Br)ccc(Cl)c2c1O [Compound 54, 1-(2-(benzylsulfonyl)-8-bromo-5-chloro-4-hydroxyquinolin-3-yl)ethan-1-one]	> 2000	> 2000	> 2000	> 2000	> 2000	> 2000	> 2000	> 10000	> 10000	> 10000	> 2000	> 2000
COc1cccc2[nH]c([S+]([O-])Cc3ccc(S(F)(F)(F)(F)F)cc3)c(C(C)=O)c(=O)c12 (stereo not drawn) [Compound 93, 3-acetyl-5-methoxy-2-((4-(pentafluoro--sulfanyl)benzyl)sulfinyl)quinolin-4(1H)-one]	> 2000	> 2000	> 2000	> 2000	> 2000	> 2000	> 2000	> 10000	> 10000	> 10000	> 2000	> 2000
CSc1c(C(C)=O)c(=O)c2c(Cl)ccc(Br)c2n1S(=O)(=O)c1ccc([N+](=O)[O-])cc1 [Compound 38, 3-acetyl-8-bromo-5-chloro-2-(methylthio)-1-((4-nitrophenyl)sulfonyl)quinolin-4(1H)-one]	> 2000	> 2000	> 2000	> 2000	> 2000	> 2000	> 2000	> 10000	> 10000	> 10000	> 2000	> 2000
CC(=O)c1c(S/C=C\C(=O)O)[nH]c2c(Br)ccc(Cl)c2c1=O [Compound 67, (Z)-3-((3-acetyl-8-bromo-5-chloro-4-oxo-1,4-dihydroquinolin-2-yl)thio)acrylic acid]	> 2000	> 2000	> 2000	> 2000	> 2000	> 2000	> 2000	> 10000	> 10000	> 10000	> 2000	> 2000
CC(=O)c1c([S+]([O-])Cc2ccc(Cl)cc2)[nH]c2c(Br)ccc(Cl)c2c1=O (stereo not drawn) [Compound 11, 3-acetyl-8-bromo-5-chloro-2-((4-chlorobenzyl)sulfinyl)quinolin-4(1H)-one]	> 2000	> 2000	> 2000	1550	> 2000	> 2000	> 2000	> 10000	> 2000	> 10000	> 2000	> 2000
CC(=O)c1c([S+]([O-])Cc2ccccc2)n(C(=O)c2ccc(Br)cc2)c2c(Br)ccc(Cl)c2c1=O (stereo not drawn) [Compound 20, 3-acetyl-2-(benzylsulfinyl)-8-bromo-1-(4-bromobenzoyl)-5-chloroquinolin-4(1H)-one]	> 2000	> 2000	> 2000	1390	1580	> 2000	1580	> 2000	> 10000	> 10000	> 2000	> 2000
CC(=O)c1c(SCc2ccc([N+](=O)[O-])cc2)[nH]c2c(Br)ccc(Cl)c2c1=O [Compound 32, 3-acetyl-8-bromo-5-chloro-2-((4-nitrobenzyl)thio)quinolin-4(1H)-one]	> 2000	> 2000	> 2000	> 2000	> 2000	> 2000	> 2000	> 10000	> 10000	> 10000	> 2000	> 2000
COc1ccccc1[S+]([O-])c1[nH]c2c(Br)ccc(Cl)c2c(=O)c1C(C)=O (stereo not drawn) [Compound 15, 3-acetyl-8-bromo-5-chloro-2-((2-methoxyphenyl)sulfinyl)quinolin-4(1H)-one]	> 2000	> 2000	> 2000	1560	> 2000	> 2000	> 2000	> 10000	> 2000	> 10000	> 2000	> 2000
CSc1c(C(C)=O)c(=O)c2c(Cl)ccc(Br)c2n1S(C)(=O)=O [Compound 35, 3-acetyl-8-bromo-5-chloro-1-(methylsulfonyl)-2-(methylthio)quinolin-4(1H)-one]	> 2000	> 2000	> 2000	> 2000	> 2000	> 2000	> 2000	> 10000	> 10000	> 10000	> 2000	> 2000
CC(=O)c1c([S+]([O-])C(C)C)[nH]c2c(Br)ccc(Cl)c2c1=O (stereo not drawn) [Compound 25, 3-acetyl-8-bromo-5-chloro-2-(isopropylsulfinyl)quinolin-4(1H)-one]	> 2000	> 2000	> 2000	> 2000	> 2000	> 2000	> 2000	> 10000	> 10000	> 10000	> 2000	> 2000
CC(=O)c1c([S+]([O-])Cc2ccc(S(F)(F)(F)(F)F)cc2)[nH]c2c(Br)ccc(Cl)c2c1=O (stereo not drawn) [Compound 68, 3-acetyl-8-bromo-5-chloro-2-((4-(pentafluoro-16-sulfanyl)benzyl)sulfinyl)quinolin-4(1H)-one]	1380	> 2000	950	770	1410	> 2000	1240	> 10000	1140	> 2000	930	> 2000
